Source: patent US20110262502A1, “PULMONARY DELIVERY OF 17-HYDROXYPROGESTERONE CAPROATE (17-HPC)” (Prairie Pharmaceuticals LLC, priority 2010, published 2011)

Assay: API particle size distribution (Dv(10), Dv(50), Dv(90), Span)
Assay type: physicochemical
Conditions: 5% (w/w) in water, 15% Tween 80, 90 bar
Description: In determining and characterizing particle size, e.g., particle size of an API (active pharmaceutical ingredient), the particle size parameters Dv(10), Dv(50) and Dv(90) may be used. Particle size measurements are preferably expressed in terms of Dv(10), Dv(50), and Dv(90), wherein Dv(10) refers to the particle size below which 10% of the volume of material exists; Dv(50) refers to the particle size below which 50% of the volume of material exists; and Dv(90) refers to the particle size below which 90% of the volume of material exists.
Referring to Table 5, experiments were performed with a suspension comprising the active pharmaceutical ingredient (the API), i.e., 17-HPC was the API in these experiments, wherein 17-HPC was present at approximately five percent (5%) w/w in water; and the suspension also comprised the surfactant Tween 80 at approximately 15% in these experiments (processing conditions conducted at Pressure=90 bar). […] Particle size measurements are expressed in terms of Dv(10), Dv(50), and Dv(90), wherein Dv(10) refers to the particle size below which 10% of the volume of material exists; Dv(50) refers to the particle size below which 50% of the volume of material exists; and Dv(90) refers to the particle size below which 90% of the volume of material exists). […]
Exemplary particle size reduction experiments, and characterization of API (i.e., 17-HPC) particle size distribution, using a suspension prepared without a surfactant. Referring to Table 7, particle size reduction of 17-HPC was observed without using any surfactant. Experiments were performed with a suspension comprising the active pharmaceutical ingredient (the API), i.e., 17-HPC in these experiments, in water and without a surfactant. FIG. 16 depicts an exemplary API particle size distribution profile (17-HPC is the active ingredient) after a spray-drying (SD) process. Referring again to FIG. 16, and also to Table 7, an exemplary 17-HPC particle size distribution profile was obtained after approximately 10 to 55 cycles of milling. API particle size was measured after spray drying (SD). Particle size measurements are expressed in terms of Dv(10), Dv(50), and Dv(90), wherein Dv(10) refers to the particle size below which 10% of the volume of material exists; Dv(50) refers to the particle size below which 50% of the volume of material exists; and Dv(90) refers to the particle size below which 90% of the volume of material exists).

Particle Size Dv(10) (after 8 cycles): 1.015 μm
Particle Size Dv(50) (after 8 cycles): 3.021 μm
Particle Size Dv(90) (after 8 cycles): 7.302 μm
Particle Size Span (after 8 cycles): 2.081
Particle Size Dv(10) (after 16 cycles): 1.071 μm
Particle Size Dv(50) (after 16 cycles): 2.574 μm
Particle Size Dv(90) (after 16 cycles): 5.347 μm
Particle Size Span (after 16 cycles): 1.662
Particle Size Dv(10) (after 25 cycles): 1.014 μm
Particle Size Dv(50) (after 25 cycles): 2.255 μm
Particle Size Dv(90) (after 25 cycles): 4.517 μm
Particle Size Span (after 25 cycles): 1.553
Compound: CCCCCC(=O)O[C@]1(C(C)=O)CC[C@H]2[C@@H]3CCC4=CC(=O)CC[C@]4(C)[C@H]3CC[C@@]21C [17HPC, 17α-HYDROXYPROGESTERONE CAPROATE]
